In ChEMBL document CHEMBL1123726, “Resolution of racemic carbocyclic analogues of purine nucleosides through the action of adenosine deaminase. Antiviral activity of the carbocyclic 2'-deoxyguanosine enantiomers” (1987) one finds VR and MIC50 data, which are given here for four compounds.

Molecules are shown by their SMILES. ≈ marks a conversion by molar mass, not a printed value.

In assay [1] the test system is Vero. Nature of the assay: Compound was evaluated for the virus rating (VR) in test 1 against Herpes simplex virus type 1 (HSV-1) in vero cells. It counts as functional, Chlorocebus sabaeus.
The subject of assay [2] is Vero. Kind of assay: Compound was evaluated for the virus rating (VR) in test 2 against Herpes simplex virus type 1 (HSV-1) in vero cells. The format is functional, Chlorocebus sabaeus.
In assay [3] the test system is Vero. Nature of the assay: Minimum inhibitory concentration was determined for inhibition of cytopathogenic effects produced by strain 377 (TK+) Herpes simplex virus type 1 (HSV-1) in vero cells. As to conditions: Chlorocebus sabaeus. The format is functional, cell-based. In general terms: Damage to the host cells serves as the signal in cytopathic effect assays.
In assay [4] the test system is Vero. Nature of the assay: Minimum inhibitory concentration was determined for inhibition of cytopathogenic effects produced by strain MS Herpes simplex virus type 2 (HSV-2) in vero cells. It counts as functional, cell-based. As to conditions: Chlorocebus sabaeus.
The species named for assay [5] is Oryctolagus cuniculus. Nature of the assay: Compound was evaluated for the virus rating (VR) against Herpes simplex virus type 2 (HSV-2) in rabbit kidney cells. It counts as functional.
The species named for assay [6] is Oryctolagus cuniculus. Kind of assay: Compound was evaluated for the virus rating (VR) against Herpes simplex virus type 1 (HSV-1) in rabbit kidney cells. The format is functional.
For assay [7], the species on record is Oryctolagus cuniculus. Kind of assay: Minimum inhibitory concentration against strain MS Herpes simplex virus type 2 (HSV-2) in rabbit kidney cells. It counts as functional.
Assay [8] is filed under the species Oryctolagus cuniculus. Kind of assay: Minimum inhibitory concentration against strain 377 (TK+) Herpes simplex virus type 1 (HSV-1) in rabbit kidney cells. The format is functional.
Setting [9] is: Oryctolagus cuniculus, read-out: MIC50.

Turning to `Nc1nc2c(ncn2[C@H]2C[C@@H](CO)[C@H](O)C2)c(=O)[nH]1`, the VR in the assay on Vero [1] is given as 0.8; in the assay on Vero [2] it was 1.1.
Consider `Nc1nc(N)c2ncn(C3CC(O)C(CO)C3)c2n1` (configuration not stated), for which the MIC50 result against Vero [3] and in the assay with Vero [4] was “Minimum inhibitory concentration was determined for inhibition of cytopathogenic effects produced by strain MS Herpes simplex virus type 2 (HSV-2) in vero cells” in each case.
For the compound `Nc1nc(O)c2ncn([C@@H]3C[C@H](CO)[C@@H](O)C3)c2n1` (stereo in doubt; 4b), the values for the VR in the assay listed under Oryctolagus cuniculus [5] and in the assay listed under Oryctolagus cuniculus [6] were 3.8 and 5.9, respectively. In addition, the MIC50 in the assay filed under Oryctolagus cuniculus [7] (setting [9]) came to 0.7 µg/mL (≈ 2.64 µM); in the assay filed under Oryctolagus cuniculus [8] (setting [9]), 0.3 µg/mL (≈ 1.13 µM).
Consider `Nc1nc(O)c2ncn([C@@H]3C[C@H](CO)[C@@H](O)C3)c2n1` (stereo in doubt; 4b+5b), for which the values for the VR in the assay listed under Oryctolagus cuniculus [5] and in the assay filed under Oryctolagus cuniculus [6] were 3.7 and 7, respectively. In addition, the values for the MIC50 in the assay listed under Oryctolagus cuniculus [7] and in the assay listed under Oryctolagus cuniculus [8] were 0.8 µg/mL (≈ 3.02 µM) and 0.3 µg/mL (≈ 1.13 µM), respectively.
